Data set [1] deals with T1, Recombinant GST-TAG-MASTL (Homo sapiens, UniProt Q96GX5).
T1 construct: GST; purchased Thermo Fisher Scientific
T1 sequence (Q96GX5 1-879): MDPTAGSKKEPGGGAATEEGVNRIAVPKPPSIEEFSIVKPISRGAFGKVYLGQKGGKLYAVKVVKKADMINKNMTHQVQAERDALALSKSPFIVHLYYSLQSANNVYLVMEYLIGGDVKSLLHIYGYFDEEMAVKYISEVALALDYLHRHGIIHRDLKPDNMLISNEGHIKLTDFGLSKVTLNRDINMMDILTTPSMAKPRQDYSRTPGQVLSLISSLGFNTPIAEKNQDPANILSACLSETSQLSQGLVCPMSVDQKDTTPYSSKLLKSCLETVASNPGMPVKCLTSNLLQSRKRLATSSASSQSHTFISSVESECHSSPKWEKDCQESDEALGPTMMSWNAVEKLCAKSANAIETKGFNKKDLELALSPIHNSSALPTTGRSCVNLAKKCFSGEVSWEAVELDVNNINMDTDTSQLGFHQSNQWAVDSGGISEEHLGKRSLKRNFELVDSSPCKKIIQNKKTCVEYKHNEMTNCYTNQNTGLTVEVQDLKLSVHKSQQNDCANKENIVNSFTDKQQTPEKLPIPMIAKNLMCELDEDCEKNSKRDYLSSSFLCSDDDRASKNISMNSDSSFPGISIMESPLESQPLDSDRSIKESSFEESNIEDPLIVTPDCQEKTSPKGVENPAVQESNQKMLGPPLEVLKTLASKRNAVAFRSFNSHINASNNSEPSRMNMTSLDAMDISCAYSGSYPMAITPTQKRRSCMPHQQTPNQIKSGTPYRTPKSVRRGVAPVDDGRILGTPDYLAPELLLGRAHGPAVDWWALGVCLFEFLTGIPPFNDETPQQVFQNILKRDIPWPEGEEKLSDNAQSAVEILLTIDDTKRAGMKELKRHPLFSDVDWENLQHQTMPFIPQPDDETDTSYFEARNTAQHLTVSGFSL
Briefly: HTRF-based kinase assay (HTRF KinEASE assay kit). It is filed as biochemical. Particulars: for IC50: HTRF; for activity at 1 µM: read-out: MASTL activity (%) HTRF (1 µM). The text has this:
Recombinant GST-TAG-MASTL (Thermo Fisher Scientific, MA, USA) was used for HTRF-based kinase assays. The HTRF KinEASE assay kit (CisBio, MA, USA) was used according to the manufacturer's instructions.
On the technique in general: TR-FRET usually uses a lanthanide donor and a delayed reading to cut background.

A short description of data set [2]: in vitro. Particulars: human, mcf10a cells.
Protocol: (§1) MCF7 breast cancer cell lines and MCF10A normal breast cancer cell lines were treated with serial dilutions of the compounds of the present invention ranging from 1 µM to 15.63 nM for 72 hours. Cell viability was measured by the WST-8 assay (Cyto XTM cell viability assay kit; LPS solution, Daejeon, Korea) according to the manufacturer's instructions.
Data set [3] deals with pENSA. Briefly: pENSA level by immunofluorescence (described method: in vitro kinase analysis with GST-tag-MASTL and His-tag-ENSA). It is filed as cell-based. The following applies: for pENSA (%) Immunofluor ecense (1 µM): compound 1 µM. Put shortly:
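In vitro kinase reaction using recombinant GST-tagged MASTL with His-tagged ENSA as substrate; phosphorylated ENSA (pENSA) serves as read-out of MASTL activity. Cell lines named: MCF7 breast cancer and MCF10A.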

Data set [4] concerns MCF7 breast cancer cell lines. Briefly: Cell viability analysis, WST-8 assay, MCF7. The following applies: Homo sapiens, MCF7, 72 h, read-out: Cell viability (%) WST-8, MCF7 (1 µM), compound 1 µM, 72 hours. On the technique in general: Tetrazolium assays rely on reduction of a dye to a coloured formazan, in cell work by metabolically active cells.
Protocol: as §1
[5] abbreviates: read-out: IC50(nM) MASTL activity.

Each structure is given as a SMILES string. Read-outs that look alike come from different tables or passages of the source.

The IC50 is the concentration that inhibits the measured activity by half. One may read the viability as a read-out of living cells in per cent, often relative to untreated cells.

On to `Brc1ccc(Nc2nc(Nc3cc(C4CC4)[nH]n3)c3ccccc3n2)cc1` [compound 4b, M^2-(4-bromophenyl)-M^4-(5-cyclopropyl-1G-pyrazol-3-yl)quinazoline-2,4-diamine], for which the IC50 worked out at 1.4 µM in data set [1] (unit µM, read-out: IC50 MASTL activity) and 1.1 µM in data set [3] (unit µM, read-out: IC50 pENSA). For the same molecule, the activity at 1 µM in data set [1] (compound 1 µM) came to 43.2%. Moreover, the viability at 1 µM in data set [2] amounted to 68.2%; in data set [4], 47.7%. The “pENSA (%) Immunofluor ecense (1 µM)” value in data set [3] came to 82%.

For `CC(C)(C)OC(=O)N1CC=C(c2nc(Nc3cc(C4CC4)[nH]n3)c3ccccc3n2)CC1` [compound 7, sdqs-butyl 4-(4-((5-cyclopropyl-1G-pyrazol-3-yl)amino)quinazolin-2-yl)-3,6-dihydropyridine-1(2G)-carboxylate], in data set [1] (setting [5]), the IC50 amounted to 0.315 µM. Further, in data set [1] (compound 1 µM), the activity at 1 µM is 31%. Besides, the values for the viability at 1 µM in data set [2] and in data set [4] were 54.9% and 84.2%, respectively. For the same molecule, the “pENSA (%) Immunofluor ecense (1 µM)” value in data set [3] is 68.2%.

Turning to `CN(C)S(=O)(=O)c1ccc(Nc2nc(Nc3ccccc3)nc3ccccc23)cc1` [compound 25d, M,M-dimethyl-4-((2-(phenylamino)quinazolin-4-yl)amino)benzenesulfonamide], the activity at 1 µM in data set [1] came to 107%. Further, the viability at 1 µM in data set [2] was determined as 106%; in data set [4], 90.8%. Moreover, the “pENSA (%) Immunofluor ecense (1 µM)” value in data set [3] turned out to be 80.6%.

As to `FC(F)(F)c1cccc(C2=CCN(c3nc(Nc4cc(C5CC5)[nH]n4)c4ccccc4n3)CC2)c1` [compound 6g, M-(5-cyclopropyl-1G-pyrazol-3-yl)-2-(4-(3-(trifluoromethyl)phenyl)-3,6-dihydropyridin-1(2G)-yl)quinazolin-4-amine], in data set [1] (compound 1 µM), the activity at 1 µM worked out at 41.4%. For the same molecule, the viability at 1 µM in data set [2] stood at 104%; in data set [4], 95%. In data set [3], the “pENSA (%) Immunofluor ecense (1 µM)” value was found to be 113%.

Consider `CC(C)(C)OC(=O)Nc1cccc(Nc2nc(Nc3ccc(CC#N)cc3)nc3ccccc23)c1` [compound 3m, sdqs-butyl (3-((2-((4-(cyanomethyl)phenyl)amino)quinazolin-4-yl)amino)phenyl)carbamate], for which the activity at 1 µM in data set [1] (compound 1 µM) turned out to be 117%. The figures for the viability at 1 µM in data set [2] and in data set [4] were 91.7% and 116%, respectively. In data set [3], the “pENSA (%) Immunofluor ecense (1 µM)” value is 85%.

As for `CN(C)S(=O)(=O)c1ccc(Nc2nc(Nc3ccc(C(F)(F)F)cc3)nc3ccccc23)cc1` [compound 25c, M,M-dimethyl-4-((2-((4-(trifluoromethyl)phenyl)amino)quinazolin-4-yl)amino)benzenesulfonamide], the activity at 1 µM in data set [1] was 108%. Besides, the viability at 1 µM was determined as 90% in data set [2] and 86.4% in data set [4]. In data set [3], the “pENSA (%) Immunofluor ecense (1 µM)” value came out at 96.5%.

`O=S(=O)(c1ccc(F)cc1F)N1CC2CCC1CN2c1nc(Nc2cc(C3CC3)[nH]n2)c2ccccc2n1` (stereo not shown) [compound 24c, M-(5-cyclopropyl-1G-pyrazol-3-yl)-2-(5-((2,4-difluorophenyl)sulfonyl)-2,5-diazabicyclo[2.2.2]octan-2-yl)quinazolin-4-amine]: the activity at 1 µM in data set [1] (compound 1 µM) came out at 16.6%. For the same molecule, the viability at 1 µM in data set [2] amounted to 10.8%; in data set [4], 68.3%. The “pENSA (%) Immunofluor ecense (1 µM)” value in data set [3] is 24.3%.

On to `Cc1cc(Nc2nc(N3CC4CC3CN4CC(C)C)nc3ccccc23)n[nH]1` (stereo not shown) [compound 27e, 2-(5-isobutyl-2,5-diazabicyclo[2.2.1]heptan-2-yl)-M-(5-methyl-1G-pyrazol-3-yl)quinazolin-4-amine], for which, in data set [1] (compound 1 µM), the activity at 1 µM is 67.4%. The viability at 1 µM worked out at 74.8% in data set [2] and 88.3% in data set [4]. In addition, the “pENSA (%) Immunofluor ecense (1 µM)” value in data set [3] amounted to 90.1%.

As to `CCCc1ccc(S(=O)(=O)N2CC3CC2CN3c2nc(Nc3cc(C4CC4)[nH]n3)c3ccccc3n2)cc1` (stereo not shown) [compound 15x, M-(5-cyclopropyl-1G-pyrazol-3-yl)-2-(5-((4-propylphenyl)sulfonyl)-2,5-diazabicyclo[2.2.1]heptan-2-yl)quinazolin-4-amine], the activity at 1 µM in data set [1] (compound 1 µM) was found to be 68.4%. For the same molecule, the viability at 1 µM in data set [2] turned out to be 98.3%; in data set [4], 122%. The “pENSA (%) Immunofluor ecense (1 µM)” value in data set [3] stood at 94.0%.

As for `O=C(c1ccccc1)N1CC2CC1CN2c1nc(Nc2cn[nH]c2)c2ccccc2n1` (stereo not shown) [compound 28d, (5-(4-((1G-pyrazol-4-yl)amino)quinazolin-2-yl)-2,5-diazabicyclo[2.2.1]heptan-2-yl)(phenyl)methanone], in data set [1] (compound 1 µM), the activity at 1 µM was determined as 119%. Also, the viability at 1 µM in data set [2] amounted to 49.7%; in data set [4] it was 93.1%. In addition, the “pENSA (%) Immunofluor ecense (1 µM)” value in data set [3] amounted to 66.9%.

On to `Cc1ccc(-c2nc3ccccc3s2)cc1Nc1nc(Nc2cc(C3CC3)[nH]n2)c2ccccc2n1` [compound 4l, M^2-(5-(benzo[c]thiazol-2-yl)-2-methylphenyl)-M^4-(5-cyclopropyl-1G-pyrazol-3-yl)quinazoline-2,4-diamine], for which the activity at 1 µM in data set [1] (compound 1 µM) is 81.5%. For the same molecule, the viability at 1 µM in data set [2] was 118%; in data set [4], 100%. Further, the “pENSA (%) Immunofluor ecense (1 µM)” value in data set [3] worked out at 88.6%.

Regarding `Cc1cc(Nc2nc(N3CC4CC3CN4C(=O)c3ccccc3)nc3ccccc23)n[nH]1` (stereo not shown) [compound 27d, (5-(4-((5-methyl-1G-pyrazol-3-yl)amino)quinazolin-2-yl)-2,5-diazabicyclo[2.2.1]heptan-2-yl)(phenyl)methanone], the activity at 1 µM in data set [1] (compound 1 µM) amounted to 121%. In addition, the viability at 1 µM in data set [2] was 48.3%; in data set [4], 94.9%. Moreover, in data set [3], the “pENSA (%) Immunofluor ecense (1 µM)” value was determined as 60.6%.

Take `Cc1cc(Nc2nc(N3CC4CC3CN4C(=O)C(C)C)nc3ccccc23)n[nH]1` (stereo not shown) [compound 27c, 2-methyl-1-(5-(4-((5-methyl-1G-pyrazol-3-yl)amino)quinazolin-2-yl)-2,5-diazabicyclo[2.2.1]heptan-2-yl)propan-1-one]: in data set [1] (compound 1 µM), the activity at 1 µM amounted to 102%. For the same molecule, the viability at 1 µM in data set [2] was 46.7%; in data set [4], 103%. Further, the “pENSA (%) Immunofluor ecense (1 µM)” value in data set [3] was determined as 90.5%.

`FC(F)(F)c1ccc(C2=CCN(c3nc(Nc4cc(C5CC5)[nH]n4)c4ccccc4n3)CC2)cc1` [compound 6f, M-(5-cyclopropyl-1G-pyrazol-3-yl)-2-(4-(4-(trifluoromethyl)phenyl)-3,6-dihydropyridin-1(2G)-yl)quinazolin-4-amine]: in data set [1] (compound 1 µM), the activity at 1 µM came out at 55.8%. For the same molecule, the values for the viability at 1 µM in data set [2] and in data set [4] were 102% and 91.9%, respectively. Further, the “pENSA (%) Immunofluor ecense (1 µM)” value in data set [3] was 110%.

For `CC(C)(C)OC(=O)N1CCN(c2nc(Nc3cc(C4CC4)[nH]n3)c3ccccc3n2)CC1` [compound 10, sdqs-butyl 4-(4-((5-cyclopropyl-1G-pyrazol-3-yl)amino)quinazolin-2-yl)piperazine-1-carboxylate], the IC50 in data set [1] (setting [5]) was found to be 0.569 µM. The activity at 1 µM in data set [1] (compound 1 µM) stood at 24.1%. The viability at 1 µM in data set [2] is 60.7%; in data set [4], 61.4%. In addition, the “pENSA (%) Immunofluor ecense (1 µM)” value in data set [3] is recorded as 50.3%.

Take `CC(C)(C)OC(=O)NCCCNC(=O)c1ccc(Nc2nc(Nc3cc(C4CC4)[nH]n3)c3ccccc3n2)cc1` [4x, sdqs-butyl (3-(4-((4-((5-cyclopropyl-1G-pyrazol-3-yl)amino)quinazolin-2-yl)amino)benzamido)propyl)carbamate]: the activity at 1 µM in data set [1] (compound 1 µM) was determined as 70.8%. For the same molecule, the viability at 1 µM amounted to 80% in data set [2] and 75.8% in data set [4]. In addition, in data set [3], the “pENSA (%) Immunofluor ecense (1 µM)” value amounted to 185%.

For the molecule `C1=C(Cc2ccccc2)CCN(c2nc(Nc3cc(C4CC4)[nH]n3)c3ccccc3n2)C1` [compound 6h, 2-(4-benzyl-3,6-dihydropyridin-1(2G)-yl)-M-(5-cyclopropyl-1G-pyrazol-3-yl)quinazolin-4-amine], in data set [1] (setting [5]), the IC50 turned out to be 0.995 µM. In data set [1] (compound 1 µM), the activity at 1 µM stood at 46%. The viability at 1 µM was determined as 59.8% in data set [2] and 89.7% in data set [4]. In data set [3], the “pENSA (%) Immunofluor ecense (1 µM)” value was 93%.

The values are drawn from patent publication EP4786466A1, “QUINAZOLINE DERIVATIVE, SALT THEREOF, AND PHARMACEUTICAL COMPOSITION COMPRISING SAME AS ACTIVE INGREDIENT” (Korea Research Institute of Chemical Technology, priority 2023, dated 2025).
